Legend:
[1] = tested on: T1, HDAC (Mouse Liver Extract); experiment: HDAC inhibition assay using Boc-Lys(Ac)-AMC substrate, mouse liver enzyme; assay type: biochemical;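 for IC50: IC50 for inhibition of HDAC activity in mouse liver extract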
T1 construct: Mouse liver enzyme (10 mg/ml) was diluted 1:6 with HDAC buffer

NCI-H460 (lung) cells = experiment: Anti-cancer screen, growth inhibition (MTT); assay type: cell-based; details: Homo sapiens, 48 hours of incubation
Procedure, shortened: (§1)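 MTT added for 3 h at 37° C, formazan dissolved in DMSO and A570 read. A T0 plate was measured at compound addition.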

U251 (glioma) cells = experiment: Anti-cancer screen, growth inhibition (MTT); assay type: cell-based; details: Homo sapiens, U-251 cells, 48 hours of incubation
Procedure, shortened: as §1

HCT 116 (colon) cells = experiment: Anti-cancer screen, growth inhibition (MTT); assay type: cell-based; details: Homo sapiens, HCT-116 cells, 48 hours of incubation
Procedure, shortened: as §1

Row | Structure (SMILES) | HDAC Inhibition % (1 μM) [1] [%] | HDAC Inhibition % (10 μM) [1] [%] | GI50 (NCI-H460 (lung) cells) [µM] | GI50 (U251 (glioma) cells) [µM] | GI50 (HCT 116 (colon) cells) [µM] | IC50 [1] [µM]
1 | Nc1ccccc1NC(=O)c1ccc(/C=C(/C(=O)NC2CC2)c2ccc(-c3ccccc3)cc2)cc1 [Example 125, N-(2-Aminophenyl)-4-(3-(cyclopropylamino)-3-oxo-2-biphenyl-4-yl-prop-1-en-1-yl)benzamide] | 31.5 | 45.4 | 35 | 20 | 3.6 | –
2 | O=C(NC1CC1)C(=Cc1ccc(C(=O)Nc2ccccc2O)cc1)c1ccc(F)cc1 [Example 126, 4-(2-(4-Fluorophenyl)-3-(cyclopropylamino)-3-oxoprop-1-en-1-yl)-N-(2-hydroxyphenyl)benzamide] | 36.9 | 53.9 | 40 | 22 | 14 | –
3 | Nc1ccccc1NC(=O)c1ccc(/C=C(/C(=O)NC2CC2)c2ccc(O)cc2)cc1 [Example 128, N-(2-Aminophenyl)-4-(2-(4-hydroxyphenyl)-3-(cyclopropylamino)-3-oxoprop-1-en-1-yl)benzamide] | 31.8 | 55.1 | 26 | 28 | 24 | –
4 | Nc1ccc(-c2ccccc2)cc1NC(=O)c1ccc(/C=C(/C(=O)NC2CC2)c2ccc(F)cc2)cc1 [Example 132] | 23.5 | 25.3 | > 100 | > 100 | > 100 | –
5 | Nc1ccccc1NC(=O)c1ccc(/C=C(\C(=O)NC2CC2)c2ccc(F)cc2)cc1 [Example 135, (Z)—N-(2-Aminophenyl)-4-(2-(4-fluorophenyl)-3-(cyclopropylamino)-3-oxoprop-1-en-1-yl)benzamide] | 8.6 | 16.6 | 76 | 9.8 | 6.8 | –
6 | Nc1ccccc1NC(=O)c1ccc(/C=C(/C(=O)N2CCOCC2)c2ccc(F)cc2)cc1 [Example 136, N-(2-Aminophenyl)-4-[2-(4-fluorophenyl)-3-morpholin-4-yl-3-oxoprop-1-en-1-yl]benzamide] | 36.1 | 67.9 | 80 | 21 | 40 | –
7 | O=C(/C=C/c1ccc(CNC(=O)c2ccc(/C=C(/C(=O)NC3CC3)c3ccc4c(c3)OCO4)cc2)cc1)NO [Example 147, 4-(3-(Cyclopropylamino)-2-[benzodioxol-5-yl]-3-oxoprop-1-en-1-yl)-N-(4-((E)-3-(hydroxyamino)-3-oxoprop-1-en-1-yl)benzyl)benzamide] | 94.6 | 100.0 | 95 | 19 | 20 | –
8 | O=C(NC1CC1)/C(=C/c1ccc(C(=O)NCc2ccc(C(=O)NO)cc2)cc1)c1ccccc1 [Example 149, 4-(3-(Cyclopropylamino)-2-phenyl-3-oxoprop-1-en-1-yl)-N-(4-(hydroxycarbamoyl)benzyl)benzamide] | 61.7 | 88.0 | 52 | 12 | 12 | –
9 | COc1ccc(/C(=C\c2ccc(C(=O)NCc3ccc(C(=O)NO)cc3)cc2)C(=O)NC2CC2)cc1 [Example 154, 4-(3-(Cyclopropylamino)-2-(4-methoxyphenyl)-3-oxoprop-1-en-1-yl)-N-(4-(hydroxycarbamoyl)benzyl)benzamide] | 87.2 | 97.5 | 33 | 20 | 27 | –
10 | O=C(NC1CC1)/C(=C/c1ccc(C(=O)NCc2ccc(C(=O)NO)cc2)cc1)c1cccc(F)c1 [Example 156, 4-(3-(Cyclopropylamino)-2-(3-fluorophenyl)-3-oxoprop-1-en-1-yl)-N-(4-(hydroxycarbamoyl)benzyl)benzamide] | 88.4 | 98.1 | 26 | 26 | 26 | –

Stronger by GI50 (NCI-H460 (lung) cells), values ahead:

Row | HDAC Inhibition % (1 μM) [1] [%] | HDAC Inhibition % (10 μM) [1] [%] | GI50 (NCI-H460 (lung) cells) [µM] | GI50 (U251 (glioma) cells) [µM] | GI50 (HCT 116 (colon) cells) [µM] | IC50 [1] [µM] | Structure (SMILES)
11 | 35.0 | 63.5 | 3.1 | 9 | 1.7 | – | Nc1ccccc1NC(=O)c1ccc(/C=C(/C(=O)NC2CC2)c2ccc3ccccc3c2)cc1 [Example 121, N-(2-Aminophenyl)-4-(3-(cyclopropylamino)-2-(2-naphthyl)-3-oxoprop-1-en-1-yl)benzamide]
12 | 28.9 | 54.1 | 11 | 50 | 2.6 | – | COc1ccc(/C(=C\c2ccc(C(=O)Nc3ccccc3N)cc2)C(=O)Nc2ccccc2)c(OC)c1 [Example 122, N-(2-Aminophenyl)-4-(3-phenylamino-2-(2,4-dimethoxyphenyl)-3-oxoprop-1-en-1-yl)benzamide]
13 | 34.7 | 63.2 | 4.5 | 2.6 | 2 | – | Nc1ccccc1NC(=O)c1ccc(/C=C(/C(=O)NC2CC2)c2c[nH]c3ccccc23)cc1 [Example 124, N-(2-Aminophenyl)-4-(3-(cyclopropylamino)-3-oxo-2-(1H-indol-3-yl)prop-1-en-1-yl)benzamide]
14 | 36.9 | 55.4 | 12 | 40 | 22 | – | Nc1ccccc1NC(=O)c1ccc(/C=C(/C(=O)NC2CC2)c2cccnc2)cc1 [Example 127, N-(2-Aminophenyl)-4-[3-(cyclopropylamino)-3-oxo-2-pyridin-3-yl-prop-1-en-1-yl]benzamide]
15 | 30.0 | 54.6 | 12 | 22 | 3.5 | – | Nc1ccccc1NC(=O)c1ccc(/C=C(/C(=O)NC2CC2)c2c(F)cccc2F)cc1 [Example 129, N-(2-Aminophenyl)-4-(2-(2,6-difluorophenyl)-3-(cyclopropylamino)-3-oxoprop-1-en-1-yl)benzamide]
16 | 34.7 | 56.0 | 9 | 16 | 5.8 | – | Nc1ccccc1NC(=O)c1ccc(/C=C(/C(=O)NC2CC2)c2cc(F)ccc2F)cc1 [Example 130, N-(2-Aminophenyl)-4-(2-(2,5-difluorophenyl)-3-(cyclopropylamino)-3-oxoprop-1-en-1-yl)benzamide]
17 | 28.6 | 57.4 | 18 | 19 | 4 | – | CC(C)NC(=O)/C(=C/c1ccc(C(=O)Nc2ccccc2N)cc1)c1ccc(F)cc1 [Example 131, N-(2-Aminophenyl)-4-(2-(4-fluorophenyl)-3-(isopropylamino)-3-oxoprop-1-en-1-yl)benzamide]
18 | 39.6 | 56.7 | 6.6 | 12 | 2.8 | – | Cc1ccccc1/C(=C\c1ccc(C(=O)Nc2ccccc2N)cc1)C(=O)NC1CC1 [Example 133, N-(2-Aminophenyl)-4-(3-(cyclopropylamino)-2-(2-methylphenyl)-3-oxoprop-1-en-1-yl)benzamide]
19 | 38.2 | 63.3 | 12 | 7.5 | 6 | – | CNC(=O)/C(=C/c1ccc(C(=O)Nc2ccccc2N)cc1)c1ccc(F)cc1 [Example 134, N-(2-Aminophenyl)-4-(3-(methylamino)-2-(4-fluorophenyl)-3-oxoprop-1-en-1-yl)benzamide]
20 | 36.3 | 62.3 | 10 | 8 | 5.5 | – | Nc1ccccc1NC(=O)c1ccc(/C=C(/CNC2CC2)c2ccc(F)cc2)cc1 [Example 144, N-(2-Aminophenyl)-4-(3-(cyclopropylamino)-2-(4-fluorophenyl)prop-1-en-1-yl)benzamide]
21 | 86.9 | 97.8 | 0.1 | 0.08 | 2 | 0.022 | Cc1ccc(/C(=C\c2ccc(C(=O)NCc3ccc(C(=O)NO)cc3)cc2)C(=O)NC2CC2)cc1 [Example 148, 4-(3-(Cyclopropylamino)-2-(4-methylphenyl)-3-oxoprop-1-en-1-yl)-N-(4-(hydroxycarbamoyl)benzyl)benzamide]
22 | 88.7 | 98.0 | 25 | 22 | 30 | – | O=C(NC1CC1)/C(=C/c1ccc(C(=O)NCc2ccc(C(=O)NO)cc2)cc1)c1ccc(F)cc1 [Example 152, 4-(3-(Cyclopropylamino)-2-(4-fluorophenyl)-3-oxoprop-1-en-1-yl)-N-(4-(hydroxycarbamoyl)benzyl)benzamide]
23 | 87.5 | 97.1 | 19 | 21 | 10.2 | – | O=C(NC1CC1)/C(=C/c1ccc(C(=O)NCc2ccc(C(=O)NO)cc2)cc1)c1cccc(Cl)c1 [Example 153, 4-(3-(Cyclopropylamino)-2-(3-chlorophenyl)-3-oxoprop-1-en-1-yl)-N-(4-(hydroxycarbamoyl)benzyl)benzamide]
24 | 88.8 | 99.3 | 16 | 26 | 30 | – | O=C(NC1CC1)/C(=C/c1ccc(C(=O)NCc2ccc(C(=O)NO)cc2)cc1)c1ccc(F)cc1Cl [Example 155, 4-(3-(Cyclopropylamino)-2-(2-chloro-4-fluorophenyl)-3-oxoprop-1-en-1-yl)-N-(4-(hydroxycarbamoyl)benzyl)benzamide]
